Reference: patent US6384061B1, “Hydantoin compounds and methods related thereto” (LG Chemical Ltd., priority 2000, dated 2002)

What was measured:
[1] = target: T1, Geranylgeranyl transferase (Bos taurus, UniProt P29702+Q5EAD5); assay: Geranylgeranyl transferase inhibiting activity (geranylgeranyl pyrophosphate, Ras-CVIL substrate); assay type: biochemical; details: geranylgeranyl transferase purified from bovine brain, read-out: GGtase IC50
T1 construct: Geranylgeranyl transferase was purified from bovine brain; from tissue; host or cells: bovine brain
Procedure: To evaluate the selective enzyme inhibiting activity of the compound according to the present invention, inhibiting activity on geranylgeranyl transferase was measured. Geranylgeranyl transferase was purified from bovine brain with the method modified from Schber's method(Schber et al., J. Biol. Chem. 1990, 265, 14701). and substantially the same experiment as that of farnesyl transferase was performed using geranylgeranyl pyrophosphate and Ras-CVIL substrate protein under the similar condition to farnesyl transferase reaction.

[2] = test system: intracellular Ras farnesyl transferase, Rat2 cell line; assay: Intracellular Ras farnesyl transferase inhibiting activity in transformed Rat2 cells (35S-methionine labelling, Y13-259 immunoprecipitation, SDS-PAGE); assay type: cell-based; details: Rattus norvegicus; transformed Rat2 fibroblast cell line; concentration inhibiting 50% of farnesyl binding of Ras protein; read-out: Ftase CIC50
Procedure: In the present experiment, Rat2 cell line which expresses C-Harvey-Ras protein having transforming activity and Rat2 cell line(Korean patent application No. 97-14409) which is transformed with fused protein of H-Ras substituted with polybasic lysine domain at C-terminus of K-Ras were used. The experiment was performed by the modified Declue's method(Declue. J. E. et al., Cancer Research, 1991. 51, 712). Hereinafter, the experimental method will be described in more detail.
3×10^5 cells of transformed Rat2 fibroblast cell line were sprayed on 60 mm cell cultivation dish and cultivated for 48 hours in a cell incubator at 37° C. and after 50% or more of density was reached, it was treated with a reagent. The compound according to the present invention dissolved in dimethylsulfoxide(DMSO) was used as the reagent. 1% of dimethylsulfoxide was used in both control and experimental groups. After 4 hours from the treatment of the reagent, methionine labeled with 150 μCi of radioactive isotope, ^35S per 1 ml of medium, was added and after cultivating for 20 hours, the cells were washed with physiological saline water. The cells were lysed using 1 ml of cool cell lysis buffer solution(50 mM of Sodium Herpiss buffer solution containing 5 mmol of magnesium chloride. 1 mmol of DTT, 1% NP 40, 1 mmol of EDTA, 1 mmol of PMSF, 2 μmol of leupeptin, 2 μmol of pepstatin A and 2 μmol of antipain) and the supernatant was obtained by high-velocity centrifugation of 12,000 g×5 minutes. The amount of the labeled radioisotope of the supernatent was measured and standardized to obtain a quantitative result in immunoprecipitation reaction and then. Y13-259, monoclonal antiboby specifically binding to Ras protein(Furth, M. E. et al., J. Virol, 1982, 43, 294) was added and reacted for 15 hours at 4° C. Protein A bound to goat anti-murine Immunoglobulin antibody-agarose suspension was added to the solution and reacted for 1 hour at 4° C. and then, to remove unspecific binding product, immunoprecipitates were washed with buffer solution(50 mM Tris chloride buffer solution containing 50 mmol of sodium chloride, 0.5% of sodium dioxycolate, 0.5% of NP 40 and 0.1% of SDS). The precipitates were boiled in reagent buffer solution for electrophoresis and then, electrophoresis was performed using 13.5% of SDS polyacrylamide gel. After electrophoresis, the gel was fixed and dried. Then, the gel was exposed to X-ray film, developed and printed. From the result of the experiment, intensities of band of protein with and without farnesyl of Ras protein were measured, and the concentration of reagent inhibiting 50% of farnesyl binding was defined as CIC50, an intracellular Ras farnesyl transferase inhibiting activity.

Ras farnesyl transferase = target: T2, Ras farnesyl transferase (Homo sapiens, UniProt P49354+P49356); assay: Ras farnesyl transferase inhibiting activity (filter-binding, tritium-farnesylpyrophosphate, Ras-CVLS substrate); assay type: biochemical; details: recombinant Ras farnesyl transferase, 30 minutes at 37° C., read-out: Ftase IC50
T2 construct: made in house
Procedure: The enzyme reaction was performed in 50 μl of 50 mM Sodium HEPES buffer solution containing 25 mmol of potassium chloride. 25 mmol of magnesium chloride, 10 mmol of DTT and 50 μmol of zinc chloride. 1.5 μmol of Ras substrate protein, 0.15 μmol of tritium-farnesylpyrophosphate and 4.5 nmol of farnesyl transferase were used.
More specifically, in the initial step, farnesyl transferase was added to the above buffer solution, reaction was maintained for 30 minutes at 37° C. and then the reaction was stopped by adding 1 ml of ethanol solution containing 1M HCl. The formed precipitates were adsorbed to GF/B filter using Hopper harvestor(Hopper #225V) for filter-binding, washed with ethanol, and then radioactivity of the dried filter was measured using LKB β counter. Enzyme titer was measured in the unsaturated state of substrate where the concentrations of Ras substrate protein and farnesyl transferase have quantitative relationship. Enzyme inhibiting activity was measured using less than 5% of total reaction solution of the compound according to the present invention dissolved in dimethylsulfoxide(DMSO) solution as a reagent. Enzyme inhibiting activity was represented by percentage of the amount of the farnesyl incorporated with the reagent to that without the reagent.

Row | Structure (SMILES) | IC50 [1] | IC50 [2] | IC50 (Ras farnesyl transferase)
1 | N#Cc1ccc(Cn2cncc2CN2C(=O)C(CC(=O)N3CCOCC3)N(Cc3cccc4ccccc34)C2=O)cc1 (stereo not drawn) [Compound 80, 4-{5-[4-(2-morpholin-4-yl-2-oxo-ethyl)-3-naphthalen-1-ylmethyl-2,5dioxo-imidazolidin-1-ylmethyl]-imidazol-1-ylmethyl}-benzonitrile] | > 10 µM | < 10 µM | 0.09 µM
2 | CC1(c2cccc3ccccc23)C(=O)N(CCCn2ccnc2)C(=O)N1Cc1cccc(Br)c1 (stereo not drawn) [Compound 20, 1-(3-bromo-benzyl)-3-(3-imidazol-1-yl-propyl)-5-methyl-5-naphthalen-1-yl-imidazolidin-2,4-dione] | > 10 µM | < 20 µM | 0.3 µM
3 | COC(=O)C(CCSC)NC(=O)CN1C(=O)N(CCCc2c[nH]cn2)C(=O)C1(C)c1cccc2ccccc12 (stereo not drawn) [Compound 1, 2-(2-{3-[3-(1H-imidazol-4-yl)-propyl]-5-methyl-5-naphthalen-1-yl-2,4-dioxo-imidazolidin-1-yl}-acetylamino)-4-methylsulfanyl-butyric acid methyl ester] | > 10 µM | 1 µM | 0.5 µM
4 | COc1ccc(C(=O)N2C(=O)N(CCCn3ccnc3)C(=O)C2(C)c2cccc3ccccc23)cc1 (stereo not drawn) [Compound 64, 3-(3-imidazol-1-yl-propyl)-1-(4-methoxy-benzoyl)-5-methyl-5-naphthalen-1-yl-imidazolidin-2,4-dione] | > 10 µM | < 20 µM | 0.7 µM
5 | CC1(c2cccc3ccccc23)NC(=O)N(CCCc2cncn2Cc2ccc(C#N)cc2)C1=O (stereo not drawn) [Compound 45, 4-{5-[3-(4-methyl-4-naphthalen-1-yl-2,5-dioxo-imidazolidin-1-yl)-propyl]-imidazol-1-ylmethyl}benzonitrile] | > 10 µM | < 20 µM | 5.5 µM
6 | CC1(c2cccc3ccccc23)C(=O)N(CCCn2ccnc2)C(=O)N1Cc1cccnc1 (stereo not drawn) [Compound 18, 1-(3-pyridylmethyl)-3-(3-imidazol-1-yl-propyl)-5-methyl-5-naphthalen-1-yl-imidazolidin-2,4-dione] | > 10 µM | < 20 µM | 0.6 µM
7 | CSCCC(NC(=O)CN1C(=O)N(Cc2cncn2Cc2ccc(C#N)cc2)C(=O)C1(C)c1cccc2ccccc12)C(=O)O (stereo not drawn) [Compound 8, 2-(2-{3-[3-(4-cyano-benzyl)-imidazol-4-yl-methyl]-5-methyl-5-naphthalen-1-yl-2,4-dioxo-imidazolidin-1-yl}-acetylamino)-4-methylsulfanyl-butyric acid] | > 10 µM | < 20 µM | 0.014 µM
8 | CCCCN1C(=O)N(CCCc2cncn2Cc2ccc(C#N)cc2)C(=O)C1(C)c1cccc2ccccc12 (stereo not drawn) [Compound 49, 4-{5-[3-(3-butyl-4-methyl-4-naphthalen-1-yl-2,5-dioxo-imidazolidin-1-yl)-propyl]-imidazol-1-ylmethyl}benzonitrile] | > 10 µM | < 20 µM | 0.055 µM
9 | CC1(c2cccc3ccccc23)C(=O)N(CCCn2ccnc2)C(=O)N1Cc1ccc(CN)cc1 (stereo not drawn) [Compound 34, 1-(4-aminomethyl-benzyl)-3-(3-imidazol-1-yl-propyl)-5-methyl-5-naphthalen-1-yl-imidazolidin-2,4-dione] | > 10 µM | < 20 µM | 2.1 µM
10 | CC1(c2cccc3ccccc23)C(=O)N(CCCc2cncn2Cc2ccc(C#N)cc2)C(=O)N1Cc1ccco1 (stereo not drawn) [Compound 55, 4-{5-[3-(3-furan-2-ylmethyl-4-methyl-4-naphthalen-1-yl-2,5-dioxo-imidazolidin-1-yl)-propyl]-imidazol-1-ylmethyl}-benzonitrile] | > 10 µM | < 20 µM | 0.045 µM
11 | CC1(c2cccc3ccccc23)C(=O)N(CCCn2ccnc2)C(=O)N1C(=O)Nc1cccc(C#N)c1 (stereo not drawn) [Compound 66, 3-(3-imidazol-1-yl-propyl)-5-methyl-5-naphthalen-1-yl-2,4-dioxo-imidazolidin-1-carboxylic acid (3-cyano-phenyl)-amide] | > 10 µM | < 20 µM | 0.2 µM
12 | CCOC(=O)CN1C(=O)N(CCCc2cncn2Cc2ccc(C#N)cc2)C(=O)C1(C)c1cccc2ccccc12 (stereo not drawn) [Compound 51, (3-{3-[3-(4-cyanobenzyl)-3H-imidazol-4-yl]-propyl}-5-methyl-5-naphthalen-1-yl-2,4-dioxo-imidazolidin-1-yl)-acetic acid ethyl ester] | > 10 µM | < 20 µM | 0.019 µM
13 | CCOC(=O)CC1C(=O)N(Cc2cncn2Cc2ccc(C#N)cc2)C(=O)N1Cc1cccc2ccccc12 (stereo not drawn) [Compound 77, {1-[3-(4-cyano-benzyl)-3H-imidazol-4-ylmethyl]-3-naphthalen-1-ylmethyl-2,5-dioxo-imidazolidin-4-yl}-acetic acid ethyl ester] | > 10 µM | < 10 µM | 0.05 µM
14 | CCOC(=O)CN1C(=O)N(Cc2cncn2Cc2ccc(C#N)cc2)C(=O)C1(C)c1cccc2ccccc12 (stereo not drawn) [Compound 62, {3-[3-(4-cyano-benzyl)-3H-imidazol-4-ylmethyl]-5-methyl-5-naphthalen-1-yl-2,4-dioxo-imidazolidin-1-yl)-acetic acid ethyl ester] | > 10 µM | < 20 µM | 0.05 µM
15 | CC1(c2cccc3ccccc23)C(=O)N(CCCn2ccnc2)C(=O)N1Cc1ccccc1C#N (stereo not drawn) [Compound 31, 2-[3-(3-imidazol-1-yl-propyl)-5-methyl-5-naphthalen-1-yl-2,4-dioxo-imidazolidin-1-ylmethyl]-benzonitrile] | > 10 µM | < 20 µM | 0.9 µM
16 | CSCCC1SCCN1C(=O)CN1C(=O)N(CCCc2cnc[nH]2)C(=O)C1(C)c1cccc2ccccc12 (stereo not drawn) [Compound 12, 3-[3-(3H-imidazol-4-yl)-propyl]-5-methyl-1-{2-[2-(2-methylsulfanyl-ethyl)-thiazolidin-3-yl]-2-oxo-ethyl}-5-naphthalen-1-yl-imidazolidin-2,4-dione] | > 10 µM | < 20 µM | 5.5 µM
17 | CC1(c2cccc3ccccc23)C(=O)N(CCCn2ccnc2)C(=O)N1Cc1ccc(C(=O)N2CCN(C(=O)OCc3ccccc3)CC2)cc1 (stereo not drawn) [Compound 43, 4-{4-[3-(3-imidazol-1-yl-propyl)-5-methyl-5-naphthalen-1-yl-2,4-dioxo-imidazolidin-1-ylmethyl]-benzoyl}-piperazine-1-carboxylic acid benzyl ester] | > 10 µM | < 20 µM | 5 µM
18 | CSCC[C@H](NC(=O)CC1C(=O)N(Cc2cncn2Cc2ccc(C#N)cc2)C(=O)N1Cc1cccc2ccccc12)C(=O)O (stereo partly drawn) [Compound 86, (2S)-(2-{1-[3-(4-cyano-benzyl)-3H-imidazol-ylmethyl]-3-naphthalen-1-ylmethyl-2,5-dioxo-imidazolidin-4-yl}-acetamino)4-methylsulfanyl-butyric acid] | > 10 µM | < 10 µM | 0.05 µM
